Data published in patent US10077446B2, “Glucan-encapsulated siRNA for treating type 2 diabetes mellitus” (The United States of America, as represented by THE …, priority 2013, dated 2018).

Experiments:
[1] = test system: Zucker diabetic fatty (ZDF) rats; experiment: 28-day oral JD5037 treatment of 8-week-old diabetic ZDF rats; type: in vivo, rat
Source text: Zucker diabetic fatty (ZDF) rats were used to assess the role of endocannabinoids and CB1R in glycemic control and β-cell loss Animal protocols were approved by the Institutional Animal Care and Use Committee of the NIAAA, NIH. Male ZDF rats with their lean controls were obtained from Charles River Laboratories (Wilmington, Mass. 01887, USA). Rats were individually housed and maintained under a 12-h light/dark cycle and fed ad libitum with a standard laboratory diet (STD, NIH-31 rodent diet).
ZDF rats received JD5037 or vehicle (4% DMSO+1% Tween 80 in PBS) by oral gavage according to 2 different protocols. JD5037 was synthesized and its pharmacological properties analyzed as described earlier (Tam, et al. 2012 Cell Metab 16, 167-179). […]
(§1) In the first one, 8-week old diabetic ZDF rats were given 3 mg/kg JD5037 or vehicle for 28 days with lean controls receiving vehicle only. In the second protocol, similar treatment was started in 6-week old pre-diabetic ZDF rats and age-matched lean controls, and treatment continued for 12 weeks until the age of 18 weeks. Body weight and food intake were monitored daily. At the end of treatment in both protocols, rats were sacrificed by decapitation, the brain, liver, kidney, pancreas and combined fat pads were removed, weighed, and snap-frozen in liquid nitrogen or fixed in formalin, and trunk blood was collected for determining endocrine and biochemical parameters. Adiposity index was defined as the combined weight of the epidydimal, retroperitoneal and inguinal fat pads, expressed as % of total body weight. In the second protocol, blood samples were taken weekly to assess the progression of T2DM by measuring blood glucose and monthly to measure insulin and c-peptide levels.
(§2) Blood glucose levels were determined using the Elite glucometer (Bayer, Pittsburgh, Pa.). Serum alanine aminotransferase (ALT), total cholesterol, triglycerides. Plasma insulin was measured using the Ultra Sensitive rat Insulin ELISA kit (Crystal Chem Inc). Hemoglobin A1c was determined using the Rat Hemoglobin A1c (HbA1c) assay kit (Crystal Chem) and c-peptide was quantified by ELISA (C-peptide (rat) ELISA, ALPCO). Serum leptin and adiponectin were determined by ELISA (B-Bridge International). α-amylase, lipase, and uric acid concentrations were determined using commercially available colorimetric kits (BioAssay Systems). TNF-α and IL-1β were determined using TNF-α ELISA Kit (for Lysates) (RayBiotech, Inc.) and IL1β Rat ELISA Kit (Abeam), respectively.
To determine intra-hepatic triglyceride and cholesterol content, liver tissue was extracted as described previously (Folch, et al. 1957 J Biol Chem 226:497-509). After extraction, 0.5 ml of organic phase was transferred to a clean tube containing 1 ml of 2% Triton X-100 in chloroform and dried using nitrogen. The residue was re-solubilized in 1 ml of distilled water and used for triglycerides content using EnzyChrom™ Triglyceride Assay Kit.
Pancreas was fixed in 10% neutral buffered formalin (NBF), embedded in paraffin and sectioned ([…]) onto glass slides. […] For detection, secondary Ab coupled to FITC or PE were used (Table 2). Images were viewed with a Fluoview FV10i confocal microscope system (Olympus). […]

[2] = test system: Zucker diabetic fatty (ZDF) rats; experiment: Hyperinsulinemic euglycemic clamp in ZDF rats; type: in vivo, rat
Method: Clamps and glucose tracer analyses in conscious, cannulated rats were performed as described: right jugular vein of 3 rats per group was catheterized a week prior to the experiment, and clamps were performed by continuous infusion of insulin at 3 mU/kg/min and co-infusion of 3H-D-glucose to maintain euglycemia. The protocol for radioactive clamps to evaluate glucose fluxes was adapted from Buettner, et al. (Buettner, et al. 2005 J Clin Invest 115:1306-1313). 3H-D-glucose (Perkin Elmer) was first infused at 0.8 μCi/min for one minute and then at 0.04 μCi/min for 2 h prior to insulin infusion, and the tritiated glucose infusion was pursued during the rest of the experiment at the same rate. 10 μl of blood were sampled from the tail 15 and 5 min before starting insulin infusion and 30, 20, 10 minutes before the end of the experiment.
Blood samples were centrifuged in order to obtain serum. Serum was snap frozen on dry ice and, once all the samples were available, 5 μl serum was transferred to 25 μl dionized water and then mixed with 25 μl of 0.1N ZnSO4. Samples were precipitated with addition of 25 μl of 0.1N Ba(OH)2. After centrifugation, the supernatant was dried overnight, resuspended in water, and counted in scintillation liquid. Glucose turnover was calculated as the ratio of tritiated glucose infusion rate over the specific activity of blood glucose.

[3] = test system: Zucker diabetic fatty (ZDF) rats; experiment: 12-week JD5037 treatment of 6-week-old pre-diabetic ZDF rats; type: in vivo, rat; details: pre-diabetic 6-week-old ZDF rats, daily JD5037 for 3 months
Method: as §1, with “In the second protocol, blood samples were taken weekly to assess the progression of T2DM by measuring blood glucose and monthly to measure insulin and c-peptide levels.” left out
as §2, with “Serum alanine aminotransferase (ALT), total cholesterol, triglycerides.” left out, “TNF-α and IL-1β were determined using TNF-α ELISA Kit (for Lysates) (RayBiotech, Inc.) and IL1β Rat ELISA Kit (Abeam), respectively.” left out

[4] = test system: Zucker diabetic fatty (ZDF) rats; experiment: Glucose-stimulated insulin secretion in intact ZDF rats and isolated islets; type: in vivo, rat
Method: Rats were fasted for 12 h, and tail blood was collected to determine basal insulin and c-peptide levels. Rats were then given glucose (3 g/kg) orally by gavage, and, 5 minutes later, tail blood was again collected for determining insulin and c-peptide levels, with the difference over baseline insulin considered as a measure of glucose-induced insulin release, and the comparison with parallel changes in c-peptide levels used to assess the role of insulin production vs. clearance in the observed change in plasma insulin levels.
After 4 days recovery, pancreata from treated animals were inflated via the common bile duct with a solution of LIBERASE™ TL Research Grade (1.18 U/ml, Roche Diagnostics) and digested for 30 min at 37° C. Islets were purified on a discontinuous Ficoll gradient (GE HEALTHCARE) and hand-picked under a stereomicroscope for immediate assessment of […] function by static incubation. Right after isolation, batches of 4 islets were pre-incubated for 2 h in RPMI 1640 containing NaHCO3 (2 g/l), HEPES (25 mM), 10% (v/v) neonatal calf serum (Invitrogen), pH 7.2, and 0.5 g/L glucose at 37° C. in an incubator containing 5% CO2. This was followed by successive 1 h incubations in the presence of 0.5, 1, 1.5, 2, and 3 g/L glucose. Supernatants were collected in each step for insulin quantification (Crystal Chem Inc). […]

[5] = test system: MIN6 insulinoma cells; experiment: Cytokine, apoptotic gene, insulin and CB1R expression in MIN6 insulinoma cells; type: cell-based, mouse
Method: (§3) Mouse RAW264.7 macrophages (ATCC, Manassas, Va.) were cultured as previously described (Liu, et al. 2003 J Biol Chem 278:45034-45039) and were either treated during 4 hours with various concentrations of AEA (0.1, 0.5, 1, and 10 μM) and/or JD5037 (100 nM) or treated with 30 ng/mL of IL-1β (Abcam Ab9723). Mouse MIN6 insulinoma cells were a gift from NIDDK and were cultured in low glucose DMEM (Gibco 11885) supplemented with 15% FBS (BenchMark 100-006) and 1% antibiotic antimycotic cocktail (Invitrogen 15240-096). Cells were either treated during 4 hours with various concentrations of AEA (0.5, 1 and 5 μM) or treated with 30 ng/mL of IL-1β (Abcam Ab9723).
(§4) For both cell types, medium was collected and immediately frozen in liquid nitrogen. Cells were washed twice in ice-cold sterile PBS before harvesting. EC (endocannabinoid) levels were determined as previously 3, secretion of IL-1β, IL-18, TNF-α and MCP-1 in the medium were determined using ELISA kits (Biosensis BEK-2151-2P, Uscn Life Science & Technology Company E90064Mu, Biosensis BEK-2102-2P, Uscn Life Science & Technology Company E90087Mu, respectively).
MIN6 cells were treated either with vehicle, IL-1β (30 ng/mL), IL1R antagonist (10 ng/mL) for 3 hours or pre-treated 1 h with IL1R antagonist (10 ng/mL) followed by 3 h incubation with IL-1β (30 ng/mL). […] Blot quantification was performed using the gel analysis options of image J software.
(§5) Total mRNA from the liver, pancreas and kidney were extracted with Trizol (Invitrogen), while total mRNA from cells was extracted using RNEASY™ Mini Kit (Qiagen). All extractions were followed by DNase I treatment (Invitrogen). Total mRNA was reverse-transcribed using the ISCRIPT™ cDNA kit (Bio-Rad). Real-time PCR was performed as described previously (Jourdan, et al. 2010 Diabetes 59:926-934) in a 96-well plate using a STEPONEPLUS™ real time PCR system (Applied Biosystems). QUANTITECT™ Primer Assays were used to detect gene expression (Table 3, which lists the primers used for rat and mice (tissue)). Expression of the gene of interest is reported as a relative value comparing it to the geometric average of 18S, L19, L38 and TATA box binding protein expression.

[6] = test system: RAW264.7 macrophages; experiment: Proinflammatory signaling in cultured RAW264.7 macrophages; type: cell-based, mouse; details: 4 h
Method: as §3, §4, §5

[7] = ZDF rats, 3 mg/kg JD5037 oral, 28 days
[8] = plasma, ZDF rats, 3 mg/kg/day JD5037 for 28 days, mean ± SEM

## CC(C)[C@H](N/C(=N\S(=O)(=O)c1ccc(Cl)cc1)N1C[C@H](c2ccccc2)C(c2ccc(Cl)cc2)=N1)C(N)=O [JD5037, (S)-2-((S,E)-3-(4-chlorophenyl)-N′-((4-chlorophenyl)sulfonyl)-4-phenyl-4,5-dihydro-1H-pyrazole-1-carboximidamido)-3-methylbutanamide]
[1]; ZDF islets/pancreas, JD5037 28 days
  elevated Nlrp3, IL-1β, IL-18, p65 NFκB, caspase-1 activity, TXNIP and IL-1 receptor mRNA: completely reversed
[1]; ZDF pancreas, JD5037 4 weeks
  ASC mRNA: normalized
  small increase in AIM-2 expression: unaffected
[1]; ZDF pancreas, JD5037 28 days
  expression of the IL-1R antagonist: increased
[1]; [7]
  body weight or adiposity: did not affect
  food intake: small reduction
  hyperglycemia of ZDF rats: completely reversed
  hyperinsulinemia (along with increased C-peptide levels): paradoxically enhanced
  steatosis, associated hepatocellular damage, increased lipogenic gene expression: greatly attenuated
[1]; ZDF rats, 3 mg/kg JD5037 oral, 28 days, FIG. 1c
  fasting blood glucose and HbA1c: normalizes
[1]; ZDF rats, JD5037 4 weeks
  Tunel-positive islet cells: reduced number
  decreased plasma adiponectin and pancreatic expression of adipoR1 and adipoR2: reversed
  insulin mRNA and protein in ZDF islets: normalized
  reduced pancreatic expression of glucokinase (Glck) and Glut2: normalized
[1]; ZDF rats, JD5037 4 weeks, LC/MS/MS
  increased pancreatic anandamide levels: normalized
[1]; ZDF rats, JD5037 28 days
  macrophage infiltration of islets: reduced
[1]; ZDF vs. lean rats, JD5037 4 weeks
  rise in expression of CB1R in islets: reversed
[1]; [8]
  Adiponectin: 5.70 ± 0.07 µg/mL
  Cholesterol: 104.8 ± 3.85 mg/dL
  IL-1β: 7.63 ± 0.78 ng/mL
  Leptin: 9.48 ± 0.31 ng/mL
  TG: 817.6 ± 31.36 mg/dL
  TNF-α: 0.83 ± 0.07 pg/mL
  Uric acid: 2.57 ± 0.04 µg/mL
[2]
  insulin resistance: not significantly affected
[2]; FIG. 1d
  peripheral glucose uptake: slightly improves
[3]
  hyperglycemia: attenuated and its development delayed
  rapid decline in plasma insulin and c-peptide: largely prevented
[4]; ZDF rats, JD5037-treated
  elevated basal insulin levels: did not affect
[4]; both in vivo and in vitro (isolated islets)
  GSIS (glucose-stimulated insulin secretion): restored

## CCCCC/C=C\C/C=C\C/C=C\C/C=C\CCCC(=O)NCCO [anandamide]
[5]
  maximally effective concentration for reducing insulin gene expression: 0.5 µM
[5]; 0.5 μM anandamide
  pro- and anti-apoptotic gene expression: little or no effect
[5]; 4 h
  levels of IL-1β, TNF-α, and MCP-1 in the medium: did not affect
[6]; RAW264.7 cells
  concentration at which peak changes in cytokine secretion were observed: 0.5 µM
  secretion of IL-1β, TNF-α, and MCP-1: markedly increased
[6]; RAW264.7 macrophages
  CB2R expression: without affecting
  expression of Nlrp3 and caspase-1: robustly increased

## IL-1R antagonist: IL-1 receptor antagonist used at 10 ng/mL in MIN6 cells
[5]; IL-1R antagonist 10 ng/mL
  IL-1β-induced reduction of CB1R mRNA and protein: blocked

## IL-1β: interleukin-1β (Abcam Ab9723)
[5]
  maximally effective concentration for reducing insulin gene expression: 30 ng/mL
[5]; 30 ng/mL IL-1β
  CB1R mRNA and protein: drastically reduced
  anti-apoptotic genes Bcl-2 and Bcl-xl: drastically suppressed
  pro-apoptotic genes Bak and Bax: markedly induced
